# Paper PMC6934184, “Selective DNA-PKcs inhibition extends the therapeutic index of localized radiotherapy and chemotherapy” (The Journal of Clinical Investigation, 2019)
# Target: T1, STK17B (DRAK2) (Homo sapiens, UniProt O94768)
# T1 construct: purchased Thermo Fisher Scientific (Life Technologies) SelectScreen
# Assay: SelectScreen LanthaScreen
# Assay type: binding
# Details: read-out: % displacement
# Procedure, shortened: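 Percent values come from Thermo SelectScreen profiling of NU5455, combining activity and binding assays. CSF1R was run in Z'LYTE format at Km app ATP, and CAMK1 in Adapta format with ATP listed at 10.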
# T1 sequence (O94768 whole entry): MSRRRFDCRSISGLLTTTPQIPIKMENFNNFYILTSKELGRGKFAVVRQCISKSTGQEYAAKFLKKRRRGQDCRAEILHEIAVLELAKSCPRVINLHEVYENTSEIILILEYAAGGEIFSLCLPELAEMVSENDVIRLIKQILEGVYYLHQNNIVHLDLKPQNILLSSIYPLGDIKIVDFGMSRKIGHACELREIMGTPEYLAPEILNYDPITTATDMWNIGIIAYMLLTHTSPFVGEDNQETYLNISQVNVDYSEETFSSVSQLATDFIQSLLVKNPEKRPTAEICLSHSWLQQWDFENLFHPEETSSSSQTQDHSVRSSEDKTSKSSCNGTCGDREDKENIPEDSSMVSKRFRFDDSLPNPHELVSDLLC
structure (smiles),measurement,value
CN(C(=O)CN1CCOCC1)c1ccc2sc3c(-c4cccc5c(=O)cc(N6CC7CCC(C6)O7)oc45)cccc3c2c1 [NU5455],inhibition at 1 µM,2.7%
